Test results: PubChem BioAssay (NCI)
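Protocol summary: plate cells (96-well), add compound at 5 concentrations, incubate 48 h, interpolate endpoints linearly. The concentration for full growth arrest is given as TGI.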

Columns and labels:
Assay in all cases: inhibition of tumour cell growth, NCI panel, 48 h
[1] = tested on: RXF-631 renal
[2] = tested on: NCI-H460 lung
[3] = tested on: RXF 393 renal
[4] = tested on: MALME-3M melanoma
[5] = tested on: SF-539 CNS
[6] = tested on: SK-MEL-2 melanoma
[7] = tested on: SK-MEL-5 melanoma
[8] = tested on: TK-10 renal
[9] = tested on: HT29 colon
[10] = tested on: SN12C renal
[11] = tested on: RPMI-8226 leukemia
[12] = tested on: UO-31 renal
[13] = tested on: HL-60(TB) leukemia
[14] = tested on: HCT-116 colon
[15] = tested on: NCI-H23 lung
[16] = tested on: SR leukemia
[17] = tested on: LOX IMVI melanoma
[18] = tested on: HOP-18 NSCLC
[19] = tested on: SW-620 colon
[20] = tested on: ACHN renal
[21] = tested on: A498 renal
[22] = tested on: MOLT-4 leukemia
[23] = tested on: SNB-19 CNS
[24] = tested on: A549 NSCLC
[25] = tested on: SNB-75 CNS
[26] = tested on: KM20L2 colon
[27] = tested on: EKVX NSCLC
[28] = tested on: KM12 colon
[29] = tested on: SK-MEL-28 melanoma
[30] = tested on: OVCAR-4 ovarian
[31] = tested on: HCC-2998 colon
[32] = tested on: SF-295 CNS
[33] = tested on: SF-268 CNS
[34] = tested on: HOP-62 NSCLC
[35] = tested on: UACC-62 melanoma
[36] = tested on: M19-MEL melanoma
[37] = tested on: SK-OV-3 ovarian
[38] = tested on: U251 CNS
[39] = tested on: CAKI-1 renal
[40] = tested on: 786-0 renal
[41] = tested on: OVCAR-5 ovarian
[42] = tested on: IGROV1 ovarian
[43] = tested on: SNB-78 CNS
[44] = tested on: DMS 273 small cell lung
[45] = tested on: CCRF-CEM leukemia
[46] = tested on: M14 melanoma
[47] = tested on: UACC-257 melanoma
[48] = tested on: K-562 leukemia
[49] = tested on: HCT-15 colon
[50] = tested on: OVCAR-8 ovarian
[51] = tested on: NCI-H522 lung
[52] = tested on: HOP-92 NSCLC
[53] = tested on: COLO 205 colon
[54] = tested on: OVCAR-3 ovarian
[55] = tested on: DLD-1 colon
[56] = tested on: NCI-H226 lung
[57] = tested on: LXFL 529 NSCLC
[58] = tested on: DMS 114 small cell lung
[59] = tested on: XF 498 CNS

SMILES: Clc1cc(Cl)c2n[se]nc2c1
- TGI [1]: > 100 µM
- TGI [2]: > 100 µM
- TGI [3]: > 100 µM
- TGI [4]: > 100 µM
- TGI [5]: > 100 µM
- TGI [6]: > 100 µM
- TGI [7]: > 100 µM
- TGI [8]: > 100 µM
- TGI [9]: > 100 µM
- TGI [10]: > 100 µM
- TGI [11]: > 100 µM
- TGI [12]: > 100 µM
- TGI [13]: > 100 µM
- TGI [14]: > 100 µM
- TGI [15]: > 100 µM
- TGI [16]: > 100 µM
- TGI [17]: > 100 µM
- TGI [18]: > 100 µM
- TGI [19]: > 100 µM
- TGI [20]: > 100 µM
- TGI [21]: > 100 µM
- TGI [22]: > 100 µM
- TGI [23]: > 100 µM
- TGI [24]: > 100 µM
- TGI [25]: > 100 µM
- TGI [26]: > 100 µM
- TGI [27]: > 100 µM
- TGI [28]: > 100 µM
- TGI [29]: > 100 µM
- TGI [30]: > 100 µM
- TGI [31]: > 100 µM
- TGI [32]: > 100 µM
- TGI [33]: > 100 µM
- TGI [34]: > 100 µM
- TGI [35]: > 100 µM
- TGI [36]: > 100 µM
- TGI [37]: > 100 µM
- TGI [38]: > 100 µM
- TGI [39]: > 100 µM
- TGI [40]: > 100 µM
- TGI [41]: > 100 µM
- TGI [42]: > 100 µM
- TGI [43]: > 100 µM
- TGI [44]: > 100 µM
- TGI [45]: > 100 µM
- TGI [46]: > 100 µM
- TGI [47]: > 100 µM
- TGI [48]: > 100 µM
- TGI [49]: > 100 µM
- TGI [50]: > 100 µM
- TGI [51]: > 100 µM

SMILES: O=C(CCCCCCCCC(=O)OCCCn1cc(C(=O)NC(=O)OCc2ccccc2)c(=O)[nH]c1=O)OCCCn1cc(C(=O)NC(=O)OCc2ccccc2)c(=O)[nH]c1=O
- TGI [1]: > 100 µM
- TGI [2]: > 100 µM
- TGI [3]: > 100 µM
- TGI [4]: > 100 µM
- TGI [5]: > 100 µM
- TGI [6]: > 100 µM
- TGI [7]: > 100 µM
- TGI [8]: > 100 µM
- TGI [52]: > 100 µM
- TGI [9]: > 100 µM
- TGI [10]: > 100 µM
- TGI [11]: > 100 µM
- TGI [12]: > 100 µM
- TGI [13]: > 100 µM
- TGI [14]: > 100 µM
- TGI [15]: > 100 µM
- TGI [17]: > 100 µM
- TGI [18]: > 100 µM
- TGI [19]: > 100 µM
- TGI [20]: > 100 µM
- TGI [21]: > 100 µM
- TGI [22]: > 100 µM
- TGI [23]: > 100 µM
- TGI [24]: > 100 µM
- TGI [25]: > 100 µM
- TGI [26]: > 100 µM
- TGI [27]: > 100 µM
- TGI [53]: > 100 µM
- TGI [28]: > 100 µM
- TGI [54]: > 100 µM
- TGI [29]: > 100 µM
- TGI [30]: > 100 µM
- TGI [31]: > 100 µM
- TGI [32]: > 100 µM
- TGI [33]: > 100 µM
- TGI [34]: > 100 µM
- TGI [35]: > 100 µM
- TGI [36]: > 100 µM
- TGI [37]: > 100 µM
- TGI [55]: > 100 µM
- TGI [56]: > 100 µM
- TGI [38]: > 100 µM
- TGI [39]: > 100 µM
- TGI [40]: > 100 µM
- TGI [41]: > 100 µM
- TGI [42]: > 100 µM
- TGI [43]: > 100 µM
- TGI [44]: > 100 µM
- TGI [45]: > 100 µM
- TGI [46]: > 100 µM
- TGI [47]: > 100 µM
- TGI [48]: > 100 µM
- TGI [49]: > 100 µM
- TGI [50]: > 100 µM
- TGI [51]: > 100 µM

SMILES: COc1ccc(-c2cc(-c3ccco3)c(C#N)c(=O)n2C2OC(OC(=O)c3ccccc3)C(OC(=O)c3ccccc3)C2OC(=O)c2ccccc2)cc1 (stereo not given)
- TGI [1]: > 100 µM
- TGI [2]: > 100 µM
- TGI [3]: 63.7 µM
- TGI [4]: > 100 µM
- TGI [5]: > 100 µM
- TGI [6]: > 100 µM
- TGI [7]: > 100 µM
- TGI [8]: 54.7 µM
- TGI [52]: 54.5 µM
- TGI [9]: > 100 µM
- TGI [10]: > 100 µM
- TGI [11]: > 100 µM
- TGI [12]: > 100 µM
- TGI [14]: > 100 µM
- TGI [15]: > 100 µM
- TGI [16]: > 100 µM
- TGI [17]: > 100 µM
- TGI [18]: > 100 µM
- TGI [19]: > 100 µM
- TGI [20]: > 100 µM
- TGI [57]: > 100 µM
- TGI [58]: > 100 µM
- TGI [21]: > 100 µM
- TGI [22]: > 100 µM
- TGI [23]: > 100 µM
- TGI [25]: > 100 µM
- TGI [26]: > 100 µM
- TGI [27]: > 100 µM
- TGI [53]: > 100 µM
- TGI [28]: > 100 µM
- TGI [54]: > 100 µM
- TGI [29]: > 100 µM
- TGI [30]: > 100 µM
- TGI [31]: > 100 µM
- TGI [32]: > 100 µM
- TGI [34]: > 100 µM
- TGI [36]: > 100 µM
- TGI [55]: > 100 µM
- TGI [56]: > 100 µM
- TGI [38]: > 100 µM
- TGI [39]: > 100 µM
- TGI [40]: > 100 µM
- TGI [41]: > 100 µM
- TGI [42]: > 100 µM
- TGI [43]: > 100 µM
- TGI [44]: > 100 µM
- TGI [45]: > 100 µM
- TGI [46]: > 100 µM
- TGI [47]: > 100 µM
- TGI [48]: > 100 µM
- TGI [49]: > 100 µM
- TGI [50]: > 100 µM
- TGI [51]: > 100 µM

SMILES: O=C(N/C(=C\c1cc(Cl)ccc1Cl)c1nc2ccccc2[nH]1)c1ccccc1
- TGI [1]: > 100 µM
- TGI [59]: 69 µM
- TGI [3]: 64.4 µM
- TGI [4]: > 100 µM
- TGI [5]: > 100 µM
- TGI [6]: > 100 µM
- TGI [7]: 53.3 µM
- TGI [8]: > 100 µM
- TGI [52]: 31.5 µM
- TGI [9]: 29.8 µM
- TGI [10]: > 100 µM
- TGI [12]: 62.7 µM
- TGI [13]: 67 µM
- TGI [15]: 96.9 µM
- TGI [16]: 81.7 µM
- TGI [19]: 52.8 µM
- TGI [20]: > 100 µM
- TGI [57]: > 100 µM
- TGI [58]: > 100 µM
- TGI [22]: 63.8 µM
- TGI [23]: > 100 µM
- TGI [24]: > 100 µM
- TGI [26]: > 100 µM
- TGI [27]: > 100 µM
- TGI [28]: 88.9 µM
- TGI [54]: > 100 µM
- TGI [29]: > 100 µM
- TGI [30]: > 100 µM
- TGI [31]: 37.8 µM
- TGI [32]: > 100 µM
- TGI [33]: > 100 µM
- TGI [35]: > 100 µM
- TGI [36]: > 100 µM
- TGI [37]: > 100 µM
- TGI [55]: 37 µM
- TGI [38]: > 100 µM
- TGI [39]: > 100 µM
- TGI [40]: 35.7 µM
- TGI [41]: > 100 µM
- TGI [43]: > 100 µM
- TGI [45]: 88.3 µM
- TGI [46]: 69.7 µM
- TGI [48]: 76.6 µM
- TGI [49]: 71.9 µM
- TGI [50]: 46.9 µM
- TGI [51]: > 100 µM
